Measured values as given in ChEMBL document CHEMBL1149602, “Impaired mutagenic activities of MPDP(+) (1-methyl-4-phenyl-2,3-dihydropyridinium) and MPP(+) (1-methyl-4-phenylpyridinium) due to their interactions with methylxanthines” (2007).

Legend:
Assay type in all cases: functional
Vibrio harveyi [1] = test: Effect on 1-methyl-4-phenylpyridinium-induced mutagenicity in Vibrio harveyi BB7XM assessed as number of neomycin-resistant mutants at 10 uM
Vibrio harveyi [2] = test: Effect on 1-methyl-4-phenyl-2,3-dihydropyridinium-induced mutagenicity in Vibrio harveyi BB7XM assessed as number of neomycin-resistant mutants at 1000 uM
Vibrio harveyi [3] = test: Effect on 1-methyl-4-phenylpyridinium-induced mutagenicity in Vibrio harveyi BB7XM assessed as number of neomycin-resistant mutants at 100 uM
Vibrio harveyi [4] = test: Effect on 1-methyl-4-phenylpyridinium-induced mutagenicity in Vibrio harveyi BB7XM assessed as number of neomycin-resistant mutants at 500 uM
Vibrio harveyi [5] = test: Effect on 1-methyl-4-phenyl-2,3-dihydropyridinium-induced mutagenicity in Vibrio harveyi BB7XM assessed as number of neomycin-resistant mutants at 500 uM
Vibrio harveyi [6] = test: Effect on 1-methyl-4-phenyl-2,3-dihydropyridinium-induced mutagenicity in Vibrio harveyi BB7XM assessed as number of neomycin-resistant mutants at 10 uM
Vibrio harveyi [7] = test: Effect on 1-methyl-4-phenylpyridinium-induced mutagenicity in Vibrio harveyi BB7XM assessed as number of neomycin-resistant mutants at 1000 uM
Vibrio harveyi [8] = test: Effect on 1-methyl-4-phenyl-2,3-dihydropyridinium-induced mutagenicity in Vibrio harveyi BB7XM assessed as number of neomycin-resistant mutants at 100 uM

SMILES | Activity (Vibrio harveyi [1]) | Activity (Vibrio harveyi [2]) | Activity (Vibrio harveyi [3]) | Activity (Vibrio harveyi [4]) | Activity (Vibrio harveyi [5]) | Activity (Vibrio harveyi [6]) | Activity (Vibrio harveyi [7]) | Activity (Vibrio harveyi [8])
Cn1c(=O)c2c(ncn2C)n(C)c1=O [CAFFEINE] | 103 | 47 | 50 | 31 | 51 | 293 | 7 | 70
CC(=O)CCCCn1c(=O)c2c(ncn2C)n(C)c1=O [PENTOXIFYLLINE] | 116 | 51 | 78 | 52 | 77 | 278 | 24 | 143
